# Structures can show the parent of a compound that is named as a salt.
# Assay: Inhibition of [3H]pentazocine binding to Sigma receptor type 1 in guinea pig brain membrane without cerebellum
row,Ki [nM],Structure (SMILES)
1,1.18,CC1CCN([C@H](C)COc2ccc(Cl)cc2)CC1 [1-[2-(4-Chloro-phenoxy)-1-methyl-ethyl]-4-methyl-piperidine; hydrochloride]
2,0.34,CC1CCN([C@@H](C)COc2ccc(Cl)cc2)CC1 [1-[2-(4-Chloro-phenoxy)-1-methyl-ethyl]-4-methyl-piperidine; hydrochloride]
3,1.09,CC1CCN(C[C@H](C)COc2ccc(Cl)cc2)CC1 [1-[3-(4-Chloro-phenoxy)-2-methyl-propyl]-4-methyl-piperidine; hydrochloride]
4,1.7,CC1CCN(C[C@@H](C)COc2ccc(Cl)cc2)CC1 [1-[3-(4-Chloro-phenoxy)-2-methyl-propyl]-4-methyl-piperidine; hydrochloride]
5,0.86,"C(/C=C/c1ccc2c(c1)OCO2)=C\CN1CCCCC1 [1-(5-Benzo[1,3]dioxol-5-yl-penta-2,4-dienyl)-piperidine]"

# — BindingDB's records for doi:10.1021/jm021014d (University of Bari Aldo Moro, 2003)
